Consider two compounds from patent US5030458A, “Method for preventing diet-induced carnitine deficiency in domesticated dogs and cats” (priority 1989, dated 1991).

The subject of data set [1] is cardiomyopathy. Particulars: restoration toward normal of deficient L-Carnitine levels; dogs; cited from earlier work.
For data set [2] the following is noted: rats; cited from earlier work.
The conditions of data set [3]: cited from earlier work.
For data set [4] the following is noted: human; approaching; cited from earlier work.
The conditions of data set [5]: cited from earlier work. The source holds these as a separate data set.
A short description of data set [6]: Plasma carnitine concentrations in Greyhound dogs on commercial dog food supplemented with L-Carnitine (ground beef). The class given is in vivo. As to conditions: for concentration at 168 h / concentration at 336 h: dog, plasma, po, 350 mg/animal/day. Here is the method: Six apparently healthy Greyhound dogs were determined to be normal by physical examination, fecal flotation, complete blood count, serum biochemical profile, ECG, and echocardiography. They were fed a standard commercial dog food diet free choice for a one-month control period. Control plasma samples (as well as subsequent test samples) were obtained following an eight-hour fast on two consecutive days for analysis of total, free, and esterified L-Carnitine concentration. The average of the plasma L-Carnitine concentration on two consecutive days was taken for each dog and each measuring period. Following the control period, all of the dogs were continued for two weeks on the standard commercial dog food diet supplemented with L-Carnitine. The L-Carnitine supplement was in the form of 0.5 kg per dog per day of raw frozen lean ground beef. This was equivalent to a daily supplement of 350 mg. of L-Carnitine per dog. Plasma samples were drawn on days 7 and 8 (averaged for the one-week measurement) and days 13 and 14 (averaged for the two-week measurement) for L-Carnitine analysis. Differences between the means of each test period and control were determined by the Student's t test.

A short description of data set [7]: Renal reabsorption of L-Carnitine in dogs. The format is in vivo, dog.
Data set [8] relates to fatty acid oxidation in muscle homogenates. Particulars: certain L-Carnitine deficient patients; cited from earlier work.
The subject of data set [9] is cardiomyopathy. Particulars: restoration toward normal of deficient L-Carnitine levels; hamsters; cited from earlier work.
For data set [10] the following is noted: mammalian species; cited from earlier work.
Data set [11] is described as follows: Changes in serum L-Carnitine following oral administration of gamma-butyrobetaine. The format is in vivo. Particulars: administering GBB to a dog. The text has this: Changes in serum L-Carnitine following oral
administration of 5 grams of gamma-butyro-betaine. Amounts

For data set [12], the system named is carnitine deficiency syndromes. Particulars: humans; U.S. Pat. No. 4,382,092; cited from earlier work.

Values joined by “and” are separate entries in the source; they are usually repeats but may differ in a detail not shown here. Identical values can stand only once. “Also recorded” adds a separate entry of the source. Like-named read-outs stand apart in the source and are kept apart here.

Turning to `C[N+](C)(C)C[C@H](O)CC(=O)[O-]` [L-Carnitine], the Myocardial function result in the data set on cardiomyopathy [1] and in the data set on cardiomyopathy [9] was “improved myocardial function” throughout. Further, the “Plasma carnitine concentration, average” value in data set [2] was 56.5 ± 2.2 µM. The “Plasma total carnitine, mean” value was 51.5 ± 11.6 µM in data set [3] (human females) and 59.3 ± 11.9 µM in data set [3] (human males). The Renal reabsorption in [4] is listed as around 100%. For the same compound, the Solubility in water entry in data set [5] is “extremely soluble in water”. Moreover, the concentration in data set [6] (Week 1, individual dogs 1-6, ground beef 0.5 kg/day/dog (350 mg L-Carnitine/day), 10080 min, read-out: Plasma carnitine concentration, Free) was 60.5 µM and 52.5 µM and 55.6 µM and 56 µM and 51.7 µM; in [6] (Week 1, individual dogs 1-6, ground beef 0.5 kg/day/dog (350 mg L-Carnitine/day), 10080 min, read-out: Plasma carnitine concentration, Total), 70.7 µM and 57.2 µM and 63.1 µM and 58.1 µM and 56.3 µM; in [6] (Week 2, individual dogs 1-6, ground beef 0.5 kg/day/dog (350 mg L-Carnitine/day), 20160 min, read-out: Plasma carnitine concentration, Free), 62.2 µM and 52.7 µM and 52 µM and 58.5 µM and 41 µM; in data set [6] (Week 2, individual dogs 1-6, ground beef 0.5 kg/day/dog (350 mg L-Carnitine/day), 20160 min, read-out: Plasma carnitine concentration, Total), 65.7 µM and 58.1 µM and 56.3 µM and 66.3 µM and 43.2 µM. In addition, the “Plasma total L-Carnitine concentration (in words)” value in data set [6] (diet supplemented with L-Carnitine) was “significantly increased; also recorded: stabilizes in a range that is considered normal; also recorded: dramatically increase the plasma concentration of L-Carnitine in dogs”. Besides, the concentration at 168 h in data set [6] (Week 1, average of 6 dogs, S.D. ±3.5, ** p ≤ 0.01 vs control, read-out: Plasma carnitine concentration, Free, AVG) came out at 55.9 µM; in [6] (Week 1, average of 6 dogs, S.D. ±6.5, * p ≤ 0.05 vs control, read-out: Plasma carnitine concentration, Total, AVG) it was 62.5 µM; in data set [6] (Week 1, individual dogs 1-6, ground beef 0.5 kg/day/dog (350 mg L-Carnitine/day), read-out: Plasma carnitine concentration, Free), 58.9 µM; in data set [6] (Week 1, individual dogs 1-6, ground beef 0.5 kg/day/dog (350 mg L-Carnitine/day), read-out: Plasma carnitine concentration, Total), 70.1 µM. The concentration at 336 h stood at 51.9 µM in data set [6] (Week 2, average of 6 dogs, S.D. ±8.0, * p ≤ 0.05 vs control, read-out: Plasma carnitine concentration, Free, AVG); 57 µM in data set [6] (Week 2, average of 6 dogs, S.D. ±8.6, read-out: Plasma carnitine concentration, Total, AVG); 44.9 µM in data set [6] (Week 2, individual dogs 1-6, ground beef 0.5 kg/day/dog (350 mg L-Carnitine/day), read-out: Plasma carnitine concentration, Free); 52.4 µM in data set [6] (Week 2, individual dogs 1-6, ground beef 0.5 kg/day/dog (350 mg L-Carnitine/day), read-out: Plasma carnitine concentration, Total). Besides, the “Renal reabsorption, average” value in [7] is “approximately 75%”. In [8], the “Fatty acid oxidation in muscle homogenates” value was “restoration to normal of fatty acid oxidation”. Further, the “L-Carnitine concentration in cardiac and skeletal muscle relative to serum” value in [10] was “much higher than in serum”.
In the case of `C[N+](C)(C)CCCC(=O)[O-]` [gamma-butyro-betaine, gamma-butyrobetaine], in data set [11], the “Effect on serum L-Carnitine (in words)” value is “produces a concomitant use in serum L-Carnitine”. For the same compound, the “Alleviation of carnitine deficiency syndromes” value in data set [12] is recorded as “used successfully to alleviate carnitine deficiency syndromes in humans”.
